From patent US9986740B2, “Methods of identifying insect-TRPA1 modulators” (BRANDEIS UNIVERSITY, priority 2010, dated 2018) come the findings set out here.

The target of one assay is T1, dTRPA1 (Drosophila melanogaster, UniProt Q7Z020).
T1 sequence (Q7Z020 1-1197): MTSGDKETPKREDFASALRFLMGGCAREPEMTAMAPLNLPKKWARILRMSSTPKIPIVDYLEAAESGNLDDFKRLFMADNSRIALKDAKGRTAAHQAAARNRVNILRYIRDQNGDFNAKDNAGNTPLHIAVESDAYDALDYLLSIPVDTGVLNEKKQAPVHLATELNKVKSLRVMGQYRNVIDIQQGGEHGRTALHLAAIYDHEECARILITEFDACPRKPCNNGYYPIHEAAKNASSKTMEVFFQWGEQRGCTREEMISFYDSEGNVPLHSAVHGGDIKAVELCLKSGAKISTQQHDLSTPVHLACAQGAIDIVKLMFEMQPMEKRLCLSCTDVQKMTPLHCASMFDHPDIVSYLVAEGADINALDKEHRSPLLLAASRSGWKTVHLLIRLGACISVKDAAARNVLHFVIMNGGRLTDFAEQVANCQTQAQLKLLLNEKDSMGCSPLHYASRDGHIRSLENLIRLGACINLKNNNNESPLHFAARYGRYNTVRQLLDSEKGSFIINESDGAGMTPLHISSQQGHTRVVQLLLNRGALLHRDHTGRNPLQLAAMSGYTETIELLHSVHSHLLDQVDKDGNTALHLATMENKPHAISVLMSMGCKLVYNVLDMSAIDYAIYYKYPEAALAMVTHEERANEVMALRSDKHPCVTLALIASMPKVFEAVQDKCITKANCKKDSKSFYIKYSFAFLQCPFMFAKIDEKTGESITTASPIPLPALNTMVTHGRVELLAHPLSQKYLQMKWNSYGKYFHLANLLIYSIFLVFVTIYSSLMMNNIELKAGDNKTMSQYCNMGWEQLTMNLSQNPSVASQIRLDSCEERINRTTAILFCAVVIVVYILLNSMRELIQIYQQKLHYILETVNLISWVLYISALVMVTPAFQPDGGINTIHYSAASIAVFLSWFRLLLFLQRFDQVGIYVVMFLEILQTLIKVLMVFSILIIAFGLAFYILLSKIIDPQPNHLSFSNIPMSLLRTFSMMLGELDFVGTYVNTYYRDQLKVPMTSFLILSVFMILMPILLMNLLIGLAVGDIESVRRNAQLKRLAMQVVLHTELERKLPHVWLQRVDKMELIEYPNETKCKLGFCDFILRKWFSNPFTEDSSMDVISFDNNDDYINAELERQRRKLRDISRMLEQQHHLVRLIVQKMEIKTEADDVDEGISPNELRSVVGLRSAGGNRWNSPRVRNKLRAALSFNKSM
Briefly: Larval neuromuscular junction electrophysiology, dTRPA1 expressed in motor neurons. Conditions: third instar larval muscles. In kind it is cell-based.

Another assay concerns Drosophila flies. The assay is described as follows: Proboscis extension response (PER) behavioral assay. Format: in vivo, Drosophila melanogaster.
For another assay, the system named is uninjected oocytes. Briefly: Two-electrode voltage clamping on uninjected oocytes. In kind it is cell-based, Xenopus laevis. As to conditions: 3 mM AITC, 1 mM CA, 0.1 mM NMM.
The next assay deals with T2, Painless (Drosophila melanogaster, UniProt Q9W0Y6).
T2 sequence (Q9W0Y6 1-913): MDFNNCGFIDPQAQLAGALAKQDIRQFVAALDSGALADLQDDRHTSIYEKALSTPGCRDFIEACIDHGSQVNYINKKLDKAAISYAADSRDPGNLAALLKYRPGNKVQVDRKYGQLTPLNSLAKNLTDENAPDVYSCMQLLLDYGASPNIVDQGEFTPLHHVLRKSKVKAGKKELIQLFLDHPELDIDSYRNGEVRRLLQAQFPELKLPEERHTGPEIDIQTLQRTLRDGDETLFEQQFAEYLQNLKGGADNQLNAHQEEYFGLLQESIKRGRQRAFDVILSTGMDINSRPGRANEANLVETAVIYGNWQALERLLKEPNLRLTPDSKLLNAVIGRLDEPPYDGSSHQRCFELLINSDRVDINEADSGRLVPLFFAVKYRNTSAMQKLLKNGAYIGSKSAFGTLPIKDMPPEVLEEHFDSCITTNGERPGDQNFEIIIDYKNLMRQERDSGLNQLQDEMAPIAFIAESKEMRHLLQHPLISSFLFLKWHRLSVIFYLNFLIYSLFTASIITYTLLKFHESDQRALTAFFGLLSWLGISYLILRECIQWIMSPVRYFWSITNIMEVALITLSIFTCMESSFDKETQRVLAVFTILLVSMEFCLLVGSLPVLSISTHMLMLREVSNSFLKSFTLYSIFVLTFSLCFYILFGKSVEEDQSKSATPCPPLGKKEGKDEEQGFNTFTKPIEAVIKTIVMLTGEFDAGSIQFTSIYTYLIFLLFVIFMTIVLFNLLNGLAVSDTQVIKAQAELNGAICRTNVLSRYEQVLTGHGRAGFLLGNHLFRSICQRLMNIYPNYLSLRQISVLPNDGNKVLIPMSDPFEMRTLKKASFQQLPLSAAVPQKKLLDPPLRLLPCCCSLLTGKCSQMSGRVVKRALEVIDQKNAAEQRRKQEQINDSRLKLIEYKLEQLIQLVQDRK
The assay is described as follows: Larval neuromuscular junction electrophysiology, Painless expressed in motor neurons. In kind it is cell-based. As to conditions: 500 μM, third instar larval muscles.

In the case of `O=CC=Cc1ccccc1` [CA, cinnamaldehyde], on dTRPA1, the “Excitatory junction potentials (EJPs) driven by dTRPA1-expressing motor neurons” value was “cinnamaldehyde-responsive”. The “Effect on PER in dTrpA1 loss-of-function mutants” value in the assay on Drosophila flies (dTrpA1 loss-of-function mutants, ingestion permitted) is reported as “no reduction”. In the assay with Drosophila flies (first of five tastant offerings), the “Acceptance on first offering” value is reported as “usually accepted”. Besides, the “Effect on proboscis extension response (PER) / feeding” value in the assay on Drosophila flies (wild type flies, ingestion permitted, 350 mM sucrose with 2 mM AITC, 10 mM NMM or 6 mM CA) is recorded as “robustly inhibited”. The “Response of uninjected oocytes” value in the assay on uninjected oocytes was “did not respond”. The “Induction of EJPs in OK371>Painless animals” value at Painless is on record as “does not induce”.
